From patent US12202835B2, “Substituted aromatic ring-linked dioxinoquinazolines and dioxinoquinolines as kinase inhibitors” (BEIJING SCITECH-MQ PHARMACEUTICALS LIMITED, priority 2018, dated 2025) come the findings set out here.

Holding throughout (format): biochemical
The target in assay [1] is TRKA kinase (Homo sapiens (Human), UniProt P04629). As to the kind of experiment: Assay of small molecular compounds for inhibiting the activity of TRKA kinase (LANCE TR-FRET). The gist of the method: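 TRKA (supplied as 2 nM 2× solution) was pre-reacted with compounds for 5 min at room temperature before a 4× ULight-TK peptide/ATP mix (400 nM/40 μM) started the 60-min dark reaction at 1% DMSO. After stop and 60-min detection, TR-FRET was read.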

Assay [2] has as its target MER kinase (Homo sapiens (Human), UniProt Q12866). As to the kind of experiment: Assay of small molecular compounds for inhibiting the activity of MER kinase (LANCE TR-FRET). A digest of the protocol: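 LANCE TR-FRET readout of ULight-poly GT phosphorylation by MER kinase; compound final range 0.042-2500 nM, 3-fold steps, 5 min enzyme preincubation. Reaction 60 min at room temperature in the dark with substrate/ATP (4× at 200 nM/20 μM), 1% DMSO, then stopped and developed 60 min; IC50 by curve fit.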

Assay [3] has as its target VEGFR-2 kinase (Homo sapiens (Human), UniProt P35968). As to the kind of experiment: Assay of small molecular compounds for inhibiting the activity of VEGFR-2 kinase (LANCE TR-FRET). As to conditions: read-out: VEGFR2 IC50. The gist of the method: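 LANCE TR-FRET with human VEGFR-2 (2× stock 0.5 nM) preincubated 30 min with compound (final 2500 to 0.042 nM, 11-point 3-fold), then ULight-JAK-1 (Tyr1023) peptide/ATP added (4× stocks 200 nM/40 μM). Reaction 60 min room temperature, 4% DMSO; IC50 from inhibition-rate curve.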

TRKA kinase, sequence (P04629 33-796): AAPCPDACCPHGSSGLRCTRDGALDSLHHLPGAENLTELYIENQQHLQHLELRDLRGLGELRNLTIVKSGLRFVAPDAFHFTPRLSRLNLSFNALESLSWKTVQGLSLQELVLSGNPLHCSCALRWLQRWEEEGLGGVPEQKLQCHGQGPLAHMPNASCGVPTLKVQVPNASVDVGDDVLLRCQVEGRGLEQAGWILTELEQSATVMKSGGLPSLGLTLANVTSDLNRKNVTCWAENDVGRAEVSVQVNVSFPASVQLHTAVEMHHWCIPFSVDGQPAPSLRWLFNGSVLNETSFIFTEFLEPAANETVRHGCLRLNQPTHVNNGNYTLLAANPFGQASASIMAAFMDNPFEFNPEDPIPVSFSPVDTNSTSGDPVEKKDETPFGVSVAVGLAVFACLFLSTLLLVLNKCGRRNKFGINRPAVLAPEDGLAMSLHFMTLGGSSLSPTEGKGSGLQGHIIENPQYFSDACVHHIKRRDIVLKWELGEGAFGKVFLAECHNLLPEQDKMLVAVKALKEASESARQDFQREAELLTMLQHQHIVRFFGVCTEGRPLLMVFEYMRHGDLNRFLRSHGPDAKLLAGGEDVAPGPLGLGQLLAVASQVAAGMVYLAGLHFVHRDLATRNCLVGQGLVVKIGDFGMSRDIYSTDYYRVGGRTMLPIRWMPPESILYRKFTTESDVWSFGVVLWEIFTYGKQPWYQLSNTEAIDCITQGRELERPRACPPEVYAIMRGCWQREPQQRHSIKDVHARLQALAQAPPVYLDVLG
VEGFR-2 kinase, sequence (P35968 20-1356): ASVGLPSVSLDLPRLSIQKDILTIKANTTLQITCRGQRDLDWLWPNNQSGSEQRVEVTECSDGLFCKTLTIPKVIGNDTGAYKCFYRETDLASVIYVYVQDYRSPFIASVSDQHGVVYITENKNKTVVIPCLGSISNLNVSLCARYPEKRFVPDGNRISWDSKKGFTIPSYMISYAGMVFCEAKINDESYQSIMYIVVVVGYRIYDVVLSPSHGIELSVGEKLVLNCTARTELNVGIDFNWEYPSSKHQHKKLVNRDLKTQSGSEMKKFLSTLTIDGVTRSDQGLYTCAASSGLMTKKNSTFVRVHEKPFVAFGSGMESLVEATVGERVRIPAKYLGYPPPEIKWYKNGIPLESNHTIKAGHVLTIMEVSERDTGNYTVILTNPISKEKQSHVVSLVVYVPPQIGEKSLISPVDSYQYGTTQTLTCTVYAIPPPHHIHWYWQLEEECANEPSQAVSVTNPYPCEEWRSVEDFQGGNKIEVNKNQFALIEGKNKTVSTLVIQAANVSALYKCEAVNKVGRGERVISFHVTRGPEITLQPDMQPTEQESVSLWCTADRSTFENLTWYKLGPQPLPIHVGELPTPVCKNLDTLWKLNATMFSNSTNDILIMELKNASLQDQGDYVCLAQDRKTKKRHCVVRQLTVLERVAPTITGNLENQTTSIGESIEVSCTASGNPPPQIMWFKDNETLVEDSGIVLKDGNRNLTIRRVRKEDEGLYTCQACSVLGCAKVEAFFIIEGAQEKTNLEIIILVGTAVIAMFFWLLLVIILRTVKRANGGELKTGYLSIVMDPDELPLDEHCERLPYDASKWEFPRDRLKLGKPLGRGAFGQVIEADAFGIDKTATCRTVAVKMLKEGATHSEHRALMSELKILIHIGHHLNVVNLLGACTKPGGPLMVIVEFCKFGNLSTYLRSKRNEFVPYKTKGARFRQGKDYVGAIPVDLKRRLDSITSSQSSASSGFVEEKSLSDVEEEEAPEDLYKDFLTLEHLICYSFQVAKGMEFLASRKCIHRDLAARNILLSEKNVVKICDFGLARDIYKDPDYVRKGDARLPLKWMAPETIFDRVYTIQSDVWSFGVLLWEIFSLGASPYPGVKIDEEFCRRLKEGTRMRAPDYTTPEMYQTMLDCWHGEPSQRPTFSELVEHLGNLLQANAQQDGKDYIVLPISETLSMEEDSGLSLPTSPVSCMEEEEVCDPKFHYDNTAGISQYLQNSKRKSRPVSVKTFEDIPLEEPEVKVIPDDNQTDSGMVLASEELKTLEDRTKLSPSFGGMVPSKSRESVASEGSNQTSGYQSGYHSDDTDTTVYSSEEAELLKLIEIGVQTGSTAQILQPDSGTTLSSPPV
MER kinase, sequence (Q12866 21-999): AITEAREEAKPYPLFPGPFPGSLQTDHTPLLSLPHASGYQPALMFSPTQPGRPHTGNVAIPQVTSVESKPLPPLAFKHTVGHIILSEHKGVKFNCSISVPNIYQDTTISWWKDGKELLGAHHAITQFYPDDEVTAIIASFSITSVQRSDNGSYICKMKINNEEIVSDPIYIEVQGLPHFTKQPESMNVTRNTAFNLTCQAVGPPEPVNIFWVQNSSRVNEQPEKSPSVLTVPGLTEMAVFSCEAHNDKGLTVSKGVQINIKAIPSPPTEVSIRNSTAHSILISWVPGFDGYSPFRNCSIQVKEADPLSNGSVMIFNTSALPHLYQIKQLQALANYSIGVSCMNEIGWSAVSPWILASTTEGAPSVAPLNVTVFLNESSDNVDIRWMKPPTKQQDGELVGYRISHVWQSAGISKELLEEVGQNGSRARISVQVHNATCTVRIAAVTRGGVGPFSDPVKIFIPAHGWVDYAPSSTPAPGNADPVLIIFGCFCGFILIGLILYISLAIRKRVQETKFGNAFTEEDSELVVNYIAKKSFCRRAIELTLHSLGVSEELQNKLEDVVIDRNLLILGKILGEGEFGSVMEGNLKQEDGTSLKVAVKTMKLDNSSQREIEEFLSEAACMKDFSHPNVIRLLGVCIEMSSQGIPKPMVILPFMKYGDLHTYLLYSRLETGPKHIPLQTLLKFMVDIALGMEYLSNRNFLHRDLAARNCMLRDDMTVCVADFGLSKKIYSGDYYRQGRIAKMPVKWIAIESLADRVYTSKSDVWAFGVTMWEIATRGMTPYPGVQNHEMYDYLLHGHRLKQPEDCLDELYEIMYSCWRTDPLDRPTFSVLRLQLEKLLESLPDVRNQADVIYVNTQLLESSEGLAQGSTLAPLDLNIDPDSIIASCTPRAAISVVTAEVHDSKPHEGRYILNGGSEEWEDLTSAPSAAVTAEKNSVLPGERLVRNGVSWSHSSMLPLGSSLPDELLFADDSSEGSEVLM

Regarding `CCOc1ccn(-c2ccc(F)cc2)c(=O)c1C(=O)Nc1ccc(Oc2ccnc3cc(OCCCOC)c4c(c23)OCCO4)c(F)c1` [Example 55, N-(4-((5-(3-methoxypropoxy)-2,3-dihydro-[1,4]dioxino[2,3-f]quinolin-10-yl)oxy)-3-fluorophenyl)-4-ethoxy-1-(4-fluorophenyl)-2-oxo-1,2-dihydropyridine-3-carboxamide], the IC50 in assay [1] is less than 50 nM; in assay [2], not above 50 nM; in assay [3] it was 50 to 500 nM.
The corresponding values for `CCOc1ccn(-c2ccc(F)cc2)c(=O)c1C(=O)Nc1ccc(Oc2ccnc3cc(OCCCN4CCC(C)(N)CC4)c4c(c23)OCCO4)c(F)c1` [Example 68, N-(4-((5-(3-(4-amino-4-methylpiperidin-1-yl)propoxy)-2,3-dihydro-[1,4]dioxino[2,3-f]quinolin-10-yl)oxy)-3-fluorophenyl)-4-ethoxy-1-(4-fluorophenyl)-2-oxo-1,2-dihydropyridine-3-carboxamide] are less than 50 nM, not above 50 nM and not above 50 nM.
For `CCOc1ccn(-c2ccc(F)cc2)c(=O)c1C(=O)Nc1ccc(Oc2ccnc3cc(OC(C)C)c4c(c23)OCCO4)c(F)c1` [Example 63, N-(4-((5-isopropoxy-2,3-dihydro-[1,4]dioxino[2,3-f]quinolin-10-yl)oxy)-3-fluorophenyl)-4-ethoxy-1-(4-fluorophenyl)-2-oxo-1,2-dihydropyridine-3-carboxamide], the IC50 is 50 to 500 nM in assay [1], not above 50 nM in assay [2] and 50 to 500 nM in assay [3].
For the molecule `Cn1cc(C(=O)Nc2ccc(Oc3ccnc4cc(OC5CCOC5)c5c(c34)OCCO5)c(F)c2)c(=O)n(-c2ccc(F)cc2)c1=O` (stereo not drawn) [Example 90, N-(3-fluoro-4-((5-((tetrahydrofuran-3-yl)oxy)-2,3-dihydro-[1,4]dioxino[2,3-f]quinolin-10-yl)oxy)phenyl)-3-(4-fluorophenyl)-1-methyl-2,4-dioxo-1,2,3,4-tetrahydropyrimidine-5-carboxamide], the IC50 in assay [1] was less than 50 nM; in assay [2], not above 50 nM; in assay [3], 50 to 500 nM.
Taken in the same sequence, the figures for `CCOc1ccn(-c2ccc(F)cc2)c(=O)c1C(=O)Nc1ccc(Oc2ccnc3cc(OCCCN4CCN(C(C)=O)CC4)c4c(c23)OCCO4)c(F)c1` [Example 50, N-(4-((5-(3-(4-acetyl-piperazin-1-yl)propoxy)-2,3-dihydro-[1,4]dioxino[2,3-f]quinolin-10-yl)oxy)-3-fluorophenyl)-4-ethoxy-1-(4-fluorophenyl)-2-oxo-1,2-dihydropyridine-3-carboxamide] were less than 50 nM, not above 50 nM and not above 50 nM.
The corresponding values for `CCOc1ccn(-c2ccc(F)cc2)c(=O)c1C(=O)Nc1ccc(Oc2ccnc3cc(OCCCC#N)c4c(c23)OCCO4)c(F)c1` [Example 57, N-(4-((5-(3-cyanopropoxy)-2,3-dihydro-[1,4]dioxino[2,3-f]quinolin-10-yl)oxy)-3-fluorophenyl)-4-ethoxy-1-(4-fluorophenyl)-2-oxo-1,2-dihydropyridine-3-carboxamide] are less than 50 nM, not above 50 nM and not above 50 nM.
The corresponding values for `CCOc1ccn(-c2ccc(F)cc2)c(=O)c1C(=O)Nc1ccc(Oc2ccnc3cc(OCCCN(C)C4CCC4)c4c(c23)OCCO4)c(F)c1` [Example 71, N-(4-((5-(3-(cyclobutyl(methyl)amino)propoxy)-2,3-dihydro-[1,4]dioxino[2,3-f]quinolin-10-yl)oxy)-3-fluorophenyl)-4-ethoxy-1-(4-fluorophenyl)-2-oxo-1,2-dihydropyridine-3-carboxamide] are less than 50 nM, not above 50 nM and not above 50 nM.
